Our source for the IC50 values is BindingDB's records for doi:10.3109/14756366.2011.604851 (Shandong University, 2012).

Experiment [1] deals with T1, Gag-Pol polyprotein (Human immunodeficiency virus type 1 group M subtype B (isolate HXB2), UniProt P04585). Nature of the experiment: 3'-P Inhibitory Assay. On the procedure: Cleavage of a dinucleotide from each 3'-end of viral cDNA. All biological assays were performed essentially as previously described [Dayam et al., J. Med. Chem., 51:1136-1144].
The target of experiment [2] is T1, Gag-Pol polyprotein. Nature of the experiment: ST Inhibitory Assay. On the procedure:
Insertion of two newly processed 3'-viral DNA ends into the host-cell chromosome. All biological assays were performed essentially as previously described [Dayam et al., J. Med. Chem., 51:1136-1144].

By IC50 is commonly meant the point on the concentration scale where inhibition reaches its midpoint. A high value points to a need for much substance. Regarding `O=C(Nc1ccc(S(=O)(=O)NCc2ccc(F)cc2)cc1)c1cc(O)c(O)c(O)c1` [N-(4-(4-Fluorobenzylsulfamoyl)phenyl)galloylamide (9d)], the IC50 was 7 µM against Gag-Pol polyprotein [1] and 2 µM against Gag-Pol polyprotein [2].
For `O=C(Nc1ccc(S(=O)(=O)Nc2ccc(F)cc2)cc1)c1cc(O)c(O)c(O)c1` [N-(4-(4-Fluorophenylsulfamoyl)phenyl)galloylamide (9a)], in that order: 7 µM and 0.9 µM.
On to `COc1ccc(NS(=O)(=O)c2ccc(NC(=O)c3cc(O)c(O)c(O)c3)cc2)cc1` [N-(4-(4-Methoxylphenylsulfamoyl)phenyl)galloylamide (9q)], for which the half-maximal inhibitory concentration (IC50) at Gag-Pol polyprotein [1] amounted to 5 µM; at Gag-Pol polyprotein [2], 4.5 µM.
Turning to `O=C(Nc1ccc(S(=O)(=O)Nc2ccc([N+](=O)[O-])cc2)cc1)c1cc(O)c(O)c(O)c1` [N-(4-(4-Nitrophenylsulfamoyl)phenyl)galloylamide (9r)], the results for the IC50 on Gag-Pol polyprotein [1] and against Gag-Pol polyprotein [2] were 4 µM and 3 µM, respectively.
`CC(=O)Oc1cc(C(=O)Nc2ccc(S(=O)(=O)Nc3ccccc3)cc2)cc(OC(C)=O)c1OC(C)=O` [N-(4-Phenylsulfamoylphenyl)-3,4,5-triacetoxybenzamide (8m)]: the IC50 on Gag-Pol polyprotein [1] worked out at 8 µM; against Gag-Pol polyprotein [2] it was 1.6 µM.
The corresponding values for `O=C(Nc1ccc(S(=O)(=O)Nc2ccccc2)cc1)c1cc(O)c(O)c(O)c1` [N-(4-Phenylsulfamoylphenyl)galloylamide (9m)] are 7 µM and 1.5 µM.
Consider `O=C(Nc1ccc(S(=O)(=O)Nc2ccccc2)cc1)c1ccc(O)c(O)c1` [N-(4-phenylsulfamoylphenyl)3,4-dihydroxybenzamidebenzamide (11w)], for which the IC50 worked out at 100 µM at Gag-Pol polyprotein [1] and 50 µM against Gag-Pol polyprotein [2].
